The values that follow come from US20250263436A1, “BROAD-SPECTRUM ANTIVIRAL DRUG FOR ENTEROVIRUS, AND APPLICATION” (WUHAN INSTITUTE OF VIROLOGY, CHINESE ACADEMY OF SCIENCES, priority 2020, published 2025).

Series [1] is described as follows: Cytotoxicity of polypeptides in Vero cells (CCK-8). The series is classed as cell-based. As to the method:
(§1) Therefore, this standard was testified by cytotoxicity assay, and the cells without any treatment were used as a control group.
(§2) (1) Vero cells were plated in a 96-well plate at 100 μL per well.
(§3) (2) When the cells grew to a confluence of 70%-80%, the DMEM medium containing 10% serum was replaced with a DMEM medium containing 2% serum, and a certain concentration gradient of polypeptide RQ or LQ or SQ was added, so that the final concentrations of the polypeptide in the wells were 0.073242 μM, 0.146484 μM, 0.292969 μM, 0.585938 μM, 1.171875 μM, 2.34375 μM, 4.6875 μM, 9.375 μM, 18.75 μM, 37.5 μM, 75 μM and 150 μM, respectively.
(§4) (3) The samples were collected 24 h after the addition of the polypeptide, and then 10 μL of live cell detection reagent CCK-8 was added to each well and mixed well.
(§5) (4) The plate was placed at 37° C. for 2 h.
(§6) (5) The absorbance value at OD450 was detected by a microplate reader.
(§7) The CC50 of each polypeptide was calculated taking the cell viability of untreated cells as 100%.

Another series deals with Vero cells. As to the kind of experiment: Cytotoxicity of polypeptides in Vero cells (CCK-8). The class given is cell-based. The settings on record: Vero cells, 24 h. The method, then:
as §1, §2, §3, §4, §5, §6, §7

For series [2], the system named is EV71. The series can be described thus: Inhibition of EV71 in Vero cells (viral RNA, qRT-PCR). The series is classed as cell-based, enterovirus 71 (EV71). The conditions noted are these: anti-EV71 in Vero cells. The method, then: (1) Different cells were plated in a 24-well plate.
(2) When the cells grew to a confluence of 70%-80%, the DMEM medium containing 10% serum was replaced with a DMEM medium containing 2% serum (the DMEM medium containing 2% serum was added in each well at an amount of 0.5 mL), and 5 μL of EV71 virus of 1×10^6 PFU/mL was added to each well.
(3) After 1 h, different polypeptides (RQ or control TAT) with final concentrations of 0.3125 μM, 0.625 μM, 1.25 μM, 2.5 μM, and 5 μM were added respectively. The group without polypeptide added was used as a control.
(4) The samples were collected 24 h after the infection of EV71 virus, and RNA was extracted with the total RNA extraction kit.
(5) The supernatant was discarded, then 350 μL of TRK lysate was added to each well, and the plate was put on a shaker for 5 min.
(6) 350 μL of 70% ethanol (DEPC) was added to each well, and then the plate was put on a shaker for 5 min.
(7) The solution in each well was transferred to a RNA extraction column for 1 min of centrifugation at 12000 g.
(8) The solution obtained in the recovery tube was reloaded on the column again for 1 min of centrifugation at 12000 g.
(9) RNA washing buffer 1 was added in the column for 30 s of centrifugation at 12000 g.
(10) RNA washing buffer 2 was added in the column for 1 min of centrifugation at 12000 g.
(11) Step (10) was repeated.
(12) The column alone was centrifuged at 12000 g for 2 min to completely remove the residual RNA washing buffer.
(13) 50 μL of DEPC water was added to the column for 2 min of centrifugation at 12000 g.
(14) 2 μL of RNA sample was subjected to a fluorescence quantitative experiment using the one step qRT-PCR kit.
(1) Vero E6 cells were plated in a 24-well plate.
(3) After 1 h, different polypeptides (LQ or SQ) with final concentrations of 0.3125 μM, 0.625 μM, 1.25 μM, 2.5 μM, and 5 μM were added respectively. The group without polypeptide added was used as a control.

Series [3] has as its system EV71. The series can be described thus: Inhibitory activity on EV71 in RD cells by CCK8 method. The class given is cell-based, enterovirus 71 (EV71). The settings on record: for IC50: EV71 in RD cells, CCK8 method; for Inhibition rate on EV71 virus (%): RD cells, 0.1 MOI, 24 h, CCK8. The method, then: (1) RD cells were plated in a 96-well plate at 100 μL per well.
(2) When the cells grew to a confluence of 70%-80%, the DMEM medium containing 10% serum was replaced with a DMEM medium containing 2% serum.
(3) The polypeptide drug was gradiently diluted with the DMEM containing 2% FBS into concentrations of 0.15625 μM, 0.3125 μM, 0.625 μM, 1.25 μM, 2.5 μM, and 5 μM, and then added to a new 96-well plate at 100 μL per well, with 3 replicate wells for each concentration.
(4) The diluted virus was added to the above wells at 100 μL per well. The wells with no drug and no virus added and the wells with no drug but virus added were set as controls respectively, with a final concentration of virus of 0.1 MOI.
(4) The mixture was transferred into the 96-well plate plated with cells for another 24 h of culture, and the inhibitory activity of the polypeptide on the virus was determined by a CCK8 kit.
(5) The inhibition rates of different concentrations of the polypeptides on virus infection were calculated according to a calculation formula of: inhibition rate of polypeptide=(well with drug-well with virus)×100%/(well with no drug-well with virus).
(3) The polypeptide drug was gradiently diluted with the DMEM containing 2% FBS into concentrations of 0.15625 μM, 0.3125 μM, 0.625 μM, 1.25 μM, 2.5 μM, and 5 μM, and then added to a new 96-well plate at 100 μL per well, with 3 replicate wells for each concentration. (4) The diluted virus was added to the above wells at 100 μL per well. The wells with no drug and no virus added and the wells with no drug but virus added were set as controls respectively, with a final concentration of virus of 0.1 MOI.
In general terms: Tetrazolium assays rely on reduction of a dye to a coloured formazan, in cell work by metabolically active cells.

Values joined by “and” are separate entries in the source; they are usually repeats but may differ in a detail not shown here. Equal values may be shown once. Where no end group is shown, it is not given here. Bounds are passed on as bounds.

The CC50 is the concentration at which the toxic effect on the cells reaches its halfway point. A word on the viability: it is a read-out of living cells in per cent, often relative to untreated cells. Usually IC50 stands for the concentration that inhibits the measured activity by half. Low values mean inhibition by little substance, high ones a need for much substance. Molecule `CC[C@H](C)[C@H](NC(=O)[C@H](C)NC(=O)[C@H](CO)NC(=O)[C@H](CCCNC(=N)N)NC(=O)[C@H](CC(N)=O)NC(=O)[C@H](CC(N)=O)NC(=O)[C@H](Cc1ccc(O)cc1)NC(=O)[C@H](CCC(=O)O)NC(=O)[C@H](CCCNC(=N)N)NC(=O)[C@@H](NC(=O)[C@H](CC(C)C)NC(=O)CNC(=O)[C@H](CO)NC(=O)CNC(=O)[C@H](CCCNC(=N)N)NC(=O)[C@H](CCCNC(=N)N)NC(=O)[C@H](CCCNC(=N)N)NC(=O)[C@H](CCC(N)=O)NC(=O)[C@H](CCCNC(=N)N)NC(=O)[C@H](CCCNC(=N)N)NC(=O)[C@H](CCCCN)NC(=O)[C@H](CCCCN)NC(=O)[C@H](CCCNC(=N)N)NC(=O)CNC(=O)[C@@H](N)Cc1ccc(O)cc1)[C@@H](C)CC)C(=O)NCC(=O)N[C@@H](CC(N)=O)C(=O)N[C@H](C(=O)N[C@H](C(=O)N[C@@H](CCC(=O)O)C(=O)N[C@@H](C)C(=O)N[C@@H](CC(C)C)C(=O)N[C@@H](Cc1ccccc1)C(=O)N[C@@H](CCC(N)=O)C(=O)O)[C@@H](C)CC)[C@@H](C)O` [LQ] had a CC50 at 24 h in series [1] (African green monkey, Table 1 (Vero cells)) above 150 µM. Besides, the viability at 24 h, 0.073242 µM in series [1] (Vero cells, polypeptide 0.073242 μM, 24 h, read-out: Cell viability (%)) came out at 100%. Moreover, in series [1] (Vero cells, polypeptide 0.146484 μM, 24 h, read-out: Cell viability (%)), the viability at 24 h, 0.146484 µM is 103%. For the same molecule, in series [1] (Vero cells, polypeptide 0.292969 μM, 24 h, read-out: Cell viability (%)), the viability at 24 h, 0.292969 µM amounted to 112%. Also, in series [1] (Vero cells, polypeptide 0.585938 μM, 24 h, read-out: Cell viability (%)), the viability at 24 h, 0.585938 µM amounted to 110%. Also, in series [1] (Vero cells, polypeptide 1.171875 μM, 24 h, read-out: Cell viability (%)), the viability at 24 h, 1.17188 µM is 111%. Further, the viability at 24 h, 2.34375 µM in series [1] (Vero cells, polypeptide 2.34375 μM, 24 h, read-out: Cell viability (%)) was found to be 105%. Moreover, in series [1] (Vero cells, polypeptide 4.6875 μM, 24 h, read-out: Cell viability (%)), the viability at 24 h, 4.6875 µM was determined as 111%. Further, the viability at 24 h, 9.375 µM in series [1] (Vero cells, polypeptide 9.375 μM, 24 h, read-out: Cell viability (%)) was determined as 114%. Besides, the viability at 24 h, 18.75 µM in series [1] (Vero cells, polypeptide 18.75 μM, 24 h, read-out: Cell viability (%)) turned out to be 109%. Moreover, in series [1] (Vero cells, polypeptide 37.5 μM, 24 h, read-out: Cell viability (%)), the viability at 24 h, 37.5 µM was 117%. In addition, the viability at 24 h, 150 µM in series [1] (Vero cells, polypeptide 150 μM, 24 h, read-out: Cell viability (%)) was determined as 72.2%. In addition, the “Cell viability (%)” value in the series on Vero cells (polypeptide 0.073242 μM) was 105.9% and 97.02%; in the series with Vero cells (polypeptide 0.146484 μM), 104.7744% and 101.9913%; with Vero cells (polypeptide 0.292969 μM), 106.5265% and 104.7619%; in the series with Vero cells (polypeptide 0.585938 μM), 110.5563% and 108.0087%; with Vero cells (polypeptide 1.171875 μM), 115.1555% and 110.4762%; in the series with Vero cells (polypeptide 2.34375 μM) it was 106.3075% and 107.1861%. Further, the “Cell viability (%)” value in the series with Vero cells (polypeptide 4.6875 μM) was 104.8489% and 112.5108%; in the series with Vero cells (polypeptide 9.375 μM) it was 119.5795% and 113.5931%; in the series on Vero cells (polypeptide 18.75 μM), 115.6373% and 110.3247%; in the series with Vero cells (polypeptide 37.5 μM) it was 99.1853% and 97.1429%; in the series on Vero cells (polypeptide 75 μM) it was 108.2318% and 87.6084% and 90.8658%; in the series on Vero cells (polypeptide 150 μM), 83.0968% and 80.9091%. The molecule further had an IC50 in the series with EV71 [2] of 2.26 µM.
In the series on EV71 [3], YGRKKRRQRRRGSGNTIEALFQ [NTQ] registered an IC50 of 2.28 µM. Besides, the “Inhibition rate on EV71 virus (%)” value is 2.654% and 4.744% and 5.743% with EV71 [3] (polypeptide 0.15625 μM); 14.83% and 10.2542% and 13.3898% in the series with EV71 [3] (polypeptide 0.3125 μM); 20.84% and 30.339% and 24.339% in the series with EV71 [3] (polypeptide 0.625 μM); 39.17% and 47.6271% and 50.8202% in the series with EV71 [3] (polypeptide 1.25 μM); 45.42% and 51.9492% and 59.661% in the series with EV71 [3] (polypeptide 2.5 μM); 68.27% and 52.5424% and 61.6949% in the series on EV71 [3] (polypeptide 5 μM).
YGRKKRRQRRRGSGTIEALFQ [TQ] gave an IC50 in the series with EV71 [3] of 1.76 µM. Moreover, the “Inhibition rate on EV71 virus (%)” value was 3.314% and 5.356% and 7.23% with EV71 [3] (polypeptide 0.15625 μM); 33.3736% and 28.4011% and 30.3085% in the series on EV71 [3] (polypeptide 0.625 μM); 35.3209% and 40.3898% and 46.2471% in the series with EV71 [3] (polypeptide 1.25 μM); 59.3508% and 67.3559% and 55.2235% in the series with EV71 [3] (polypeptide 2.5 μM); 71.3029% and 65.3559% and 69.2301% in the series on EV71 [3] (polypeptide 5 μM).
